# In patent US20090143419A1, “METHODS AND COMPOSITIONS FOR CONTROLLING ECTOPARASITES” (HATCHTECH PTY LTD, priority 2005, published 2009):
# Entries after “also recorded” stand apart in the source; their conditions may differ. Structures can show the parent of a compound that is named as a salt. Where two headings read alike, the source gives them in different places. Square brackets hold non-standard residues; d marks the D form. Peptide text beside a SMILES is read from it. * marks the point of attachment. Sta = CC(C)C[C@H](N)[C@@H](O)CC(=O)O; Isovaleryl = CC(C)CC(=O)*; Cbz = O=C(OCc1ccccc1)*; NHOH = ON*
# Columns and labels:
# lice eggs [1] = experiment: Time-course in vitro lice egg hatching assay; type: in vivo, clothing lice (Pediculus humanus humanus); conditions: for effect on egg hatching: results not shown
# [2] = tested on: lice hatching proteases in the egg shell washings (ESW); experiment: Gelatine substrate SDS-PAGE of egg shell washings treated with protease inhibitors; type: biochemical, Pediculus humanus humanus; conditions: 3 hrs at 37° C.
# Procedure: Within 12 hours of hatching 50 body lice eggs (Pediculus humanus humanus) were removed from the hair and placed in a 1 ml eppendorf tube. 20 μL of distilled water was added to the unhatched eggs and the preparation incubated for 30 minutes at 32° C. The 20 μL was recovered, freeze dried and stored at −70° C. A number of other samples were also collected as described. Hair samples from which unhatched lice eggs had been removed were also collected and incubated as described above. In addition, a sample of unhatched eggs and a sample of hair from which lice eggs had been removed were collected 7 days post laying (within 24 hrs of egg hatching). Both samples were washed in 10 mls of a 1% solution of sodium hypochlorite for 1 minute followed by a 5×1 minute washes in 25 mls in distilled water to remove the hypochlorite. These samples were then incubated in 20 μL of distilled water as described above. In addition, a group of 25 lice eggs that were within 24 hours of hatching, were pretreated with 1% sodium hypochlorite, washed as described above and left to hatch. Within 1-2 hours after hatching the empty egg shells were incubated in 20 μL of distilled water as described above, the washings collected from the hatched egg shells and stored at −70° C. All of the extract samples were then freeze-dried overnight. The freeze-dried samples were then resuspended in 15 μL of non-reducing SDS sample buffer, centrifuged at 10,000 g for 2 minutes and the entire 15 μL loaded on to 10% gelatine substrate SD S-PAGE gels. Gels were run at 4° C. for 10 minutes at 10 mA followed by a further 25 minutes at 15 mA per gel. They were then incubated for 2×20 minutes in a 2.5% Triton-X 100 solution followed by a three hour incubation in 0.1M Tris/HCl containing 1 mM CaCl2 pH 8.0. Activity was detected as clear areas on the gel the result of protease activity degrading the gelatine within the gel.
# 10% SDS-PAGE gelatine substrate gels were loaded with freeze dried egg shell washings from 100 lice eggs that had been resuspended in 50 μl of non-reducing sample buffer with samples run at 10 μl per lane. Gels were run at 4° C. for 10 minutes at 10 mA per gel followed by a further 25 minutes at 15 mA per gel. Gels were then cut into strips and each strip incubated for 2×20 minutes in a 2.5% Triton-X 100 solution containing a specific inhibitor. The inhibitors used were the serine protease inhibitor PMSF (5 mM), the metalloprotease inhibitor 1,10-phenanthroline (10 mM), the aspartic protease Pepstatin (5 μM) and the cysteine inhibitor E-64 (10 μM). The gel strips were then incubated in 0.1M Tris/HCl containing 1 mM CaCl2 pH 8 containing the different protease inhibitors for 3 hrs at 37° C., before being stained in Coomassie blue and destained as previously described.
# lice eggs [3] = experiment: Lice egg-hatch bioassay, eggs treated five days post laying; type: in vivo, clothing lice (Pediculus humanus humanus)
# Procedure: To evaluate the potential effects of protease inhibitors on lice egg hatching it was necessary to develop a reliable in vitro bioassay. Male and female clothing lice were fed on a rabbit as previously described. […] During this period the female lice laid their eggs and attached them to the woven cloth. All lice would then be removed and the eggs permitted to incubate for the following 5 days. […] The eggs would then progress through to their final stages of development and hatch. In untreated control eggs a reliable average percentage hatch of between 85-95 percent was obtained using the in vitro egg hatch assay. […] Lice eggs were laid onto cloth as described above. […] Protease inhibitor solutions were typically prepared as stock solutions and added fresh at the appropriate concentration. Specifically stock solutions were prepared as follows: 1,10-phenanthroline (200 mM in methanol) and bestatin (5 mg/ml in methanol). In addition, the equivalent levels of the solvent were added to the non-inhibitor containing controls eggs to test for any buffer alone effects. Percentage hatch inhibition was calculated as the percentage reduction in egg hatch compared to the untreated control.
# [4] = tested on: Plutella xylostella eggs (Waite strain); experiment: Egg hatching of Plutella xylostella
# Procedure: The egg masses were then placed in a humid box at 25 degrees until egg hatch. Control eggs were exposed to absolute methanol as described above. At day 6 post laying the eggs were assessed from the different treatments and the percentage of egg hatch determined relative to the control as shown in Table 9.
# Batches of Plutella eggs that were laid on either fine cloth or parafilm were dipped in a specific inhibitor solution for between 2-10 seconds, the excess solution was drained by blotting with dry tissue paper. The egg masses were then placed in a humid box at 25 degrees until egg hatch. Control eggs were exposed to absolute methanol as described above or not treated. At day 6 post laying the eggs were assessed from the different treatments and the percentage of egg hatch determined relative to the controls as shown in Tables 10 and 11.
# Batches of Plutella eggs that were laid on fine cloth were dipped in a specific inhibitor solution for approximately 2 seconds, the excess solution was drained by blotting with dry tissue paper. The egg masses were then placed in a humid box at 25 degrees until egg hatch. Control eggs were exposed to absolute methanol as described above or not treated. At day 6 post laying the eggs were assessed from the different treatments and the percentage of egg hatch determined relative to the control as shown in Table 12.
# The egg masses were then placed in a humid box at 25 degrees until egg hatch. Control eggs were exposed to absolute ethanol as described above. On day 6 post laying the eggs were assessed from the different treatments and the percentage of egg hatch determined relative to the control.
# [5] = tested on: Helicoverpa armigera eggs (Tatura×Toowoomba strains); experiment: Egg hatching of Helicoverpa armigera; conditions: Table 15
# Procedure: Several hundred Helicoverpa armigera eggs (Tatura×Toowoomba strains) were collected, that had been laid on fine mesh cloth over a 24 hour period.
# Batches of Helicoverpa eggs were exposed to a specific inhibitor solution for between 2-10 seconds the excess solution drained by blotting with dry tissue paper. The egg masses were then placed in a humid box at 25 degrees until egg hatch. Control eggs were exposed to absolute methanol as described above.
# [6] = Pediculus humanus, 5 mM, read-out: % Inhibition of lice egg hatching (maximum over the time-course)
# [7] = Pediculus humanus, 5 mg/ml, read-out: % Inhibition of lice egg hatching (maximum over the time-course)
# [8] = Table 10, 1 mM, eggs laid on cloth
# [9] = Table 10, 10 mM, eggs laid on cloth
# [10] = Table 11, 1 mM, eggs laid on parafilm
# [11] = Table 12, 0.01 mM, cloth, dipped approximately 2 seconds
# [12] = Table 12, 0.1 mM, cloth, dipped approximately 2 seconds
# [13] = Table 12, 1 mM, cloth, dipped approximately 2 seconds
# [14] = Table 12, 10 mM, cloth, dipped approximately 2 seconds
structure (smiles),measurement,setting,value
"c1ccc(-c2ccccn2)nc1 [2,2′-dipyridyl]",% Inhibition of lice egg hatching (maximum over the time-course),lice eggs [1]; 10 mM,100%
same,Ph (number of eggs partly hatched),"lice eggs [1]; Table 5, […], per replicate",0
same,lice egg hatching,lice eggs [1]; in vivo,completely inhibited
CC(C)C[C@H](NC(=O)[C@H]1O[C@@H]1C(=O)O)C(=O)NCCCCN=C(N)N [Inhibitor E-64],protease activity of the ESW,[2]; 10 μM inhibitor,No reduction in protease activity
"O=C(O)CN(CCOCCOCCN(CC(=O)O)CC(=O)O)CC(=O)O [EGTA, reference compound]",effect on egg hatching,lice eggs [1]; 10 mM,did not appear to have an effect
"O=C(O)CNC(=O)C(CS)Cc1ccccc1 [D-L thiorophan, reference compound]",% Inhibition of lice egg hatching (maximum over the time-course),lice eggs [1]; 1 mg/ml,20%
"CO[C@@H]1[C@H](OC(=O)/C=C/C=C/C=C/C=C/C(=O)O)CC[C@]2(CO2)[C@H]1[C@@]1(C)O[C@@H]1CC=C(C)C [fumagillin, reference compound]",inhibition at 5000 µM,lice eggs [1]; [6],0%
O=S(=O)(F)Cc1ccccc1 [PMSF],protease activity of the ESW,[2]; 5 mM inhibitor,No reduction in protease activity
"O=C(O)CN(CCN(CC(=O)O)CC(=O)O)CC(=O)O [EDTA, reference compound]",effect on egg hatching,lice eggs [1]; 100 mM,did not appear to have an effect
"CC(C)C[C@H](NC(=O)[C@@H]1CCCN1C(=O)OCc1ccccc1)C(=O)NCC(=O)NO [N-CBZ-PRO-LEU-GLY hydroximate, reference compound] (Cbz-Pro-Leu-Gly-{NHOH})",% Inhibition of lice egg hatching (maximum over the time-course),lice eggs [1]; 10 mM,0%
"CC(C)C[C@@H](N)[C@H](O)C(=O)N[C@H](C(=O)N[C@H](C(=O)N[C@@H](CC(=O)O)C(=O)O)C(C)C)C(C)C [amastatin, reference compound]",inhibition at 5000 µM,lice eggs [1]; [6],26%
"CC(C)C[C@H](N)CS [L-leucinthiol, reference compound]",inhibition at 5000 µM,lice eggs [1]; [6],0%
"[H]/N=C(\N/C(=N/[H])NCCCCCCNC(=N)NC(=N)Nc1ccc(Cl)cc1)Nc1ccc(Cl)cc1 [chlorhexidine dihydrochloride, reference compound]",% Inhibition of lice egg hatching (maximum over the time-course),lice eggs [1]; concentration not given,0%
"CN(C)c1ccc(O)c2c1C[C@H]1C[C@H]3[C@H](N(C)C)C(O)=C(C(N)=O)C(=O)[C@@]3(O)C(O)=C1C2=O [minocycline, reference compound]",inhibition at 5000 µg/mL,lice eggs [1]; [7],55%
"CNC(=O)[C@H](Cc1c[nH]c2ccccc12)NC(=O)[C@@H](CC(=O)NO)CC(C)C [GM 6001, reference compound]",% Inhibition of lice egg hatching (maximum over the time-course),lice eggs [1]; concentration not given,0%
"CC(C)C[C@H](NC(=O)[C@@H](O)[C@H](N)Cc1ccccc1)C(=O)O [bestatin, reference compound]",lice egg hatching,"lice eggs [3]; 5 mM, eggs treated 5 days post laying",significantly inhibit lice egg hatching
same,inhibition of egg hatching,lice eggs [3]; added within 24 hours of hatching,variable inhibition
same,inhibition at 5000 µM,lice eggs [1]; [6],58%
same,inhibition at 5000 µM,"lice eggs [1]; Pediculus humanus, 144 h, 5 mM, treated 144 hr post egg laying, read-out: Percent inhibition of egg hatching",53%
"CCCCC[C@H](CC(=O)NO)C(=O)N[C@H](C(=O)N1CCC[C@H]1CO)C(C)C [actinonin, reference compound]",inhibition at 5000 µM,lice eggs [1]; [6],0%
"C[C@H](CS)C(=O)N1CCC[C@H]1C(=O)O [captopril, 1-[(2S)-3-mercapto-2-methyl-1-oxopropyl]-L-proline, reference compound]",inhibition at 23000 µM,"lice eggs [1]; Pediculus humanus, 23 mM, read-out: % Inhibition of lice egg hatching (maximum over the time-course)",27%
"Cc1ccnc(-c2cc(C)ccn2)c1 [4,4′-dimethyl-2,2′-dipyridyl]",Number hatched,[4]; [8],0
same,Number unhatched,[4]; [8],30
same,% Inhibition,"[4]; Table 10, 1 mM, eggs laid on cloth, relative to controls",100%
same,Number hatched,[4]; [9],0
same,Number unhatched,[4]; [9],36
same,% Inhibition,"[4]; Table 10, 10 mM, eggs laid on cloth, relative to controls",100%
same,Number hatched,[4]; [10],10
same,Number unhatched,[4]; [10],121
same,% Inhibition,"[4]; Table 11, 1 mM, eggs laid on parafilm, relative to controls",91%
same,Number hatched,"[4]; Table 11, 10 mM, eggs laid on parafilm",0
same,% Inhibition,"[4]; Table 11, 10 mM, eggs laid on parafilm, relative to controls",100%
same,Number hatched,[4]; [11],29
same,Number unhatched,[4]; [11],1
same,Number hatched,[4]; [12],33
same,Number unhatched,[4]; [12],18
same,Number hatched,[4]; [13],0
same,Number unhatched,[4]; [13],63
same,Number hatched,[4]; [14],1
same,Number unhatched,[4]; [14],77
same,Number hatched,[5]; 1 mM,23
same,Number unhatched,[5]; 1 mM,29
same,Number hatched,[5]; 10 mM,8
same,Number unhatched,[5]; 10 mM,43
"CN(C)[C@@H]1C(O)=C(C(N)=O)C(=O)[C@@]2(O)C(O)=C3C(=O)c4c(O)cccc4[C@@](C)(O)[C@H]3C[C@@H]12 [tetracycline, reference compound]",inhibition at 5000 µg/mL,lice eggs [1]; [7],89%
"C[C@H]1c2cccc(O)c2C(=O)C2=C(O)[C@]3(O)C(=O)C(C(N)=O)=C(O)[C@@H](N(C)C)[C@@H]3[C@@H](O)[C@@H]21 [doxycycline, reference compound]",% Inhibition of lice egg hatching (maximum over the time-course),lice eggs [1]; 5 mg/ml,69%
same,inhibition at 5000 µg/mL,lice eggs [1]; [7],65%
"CC(C)C[C@H](NP(=O)(O)O[C@@H]1O[C@@H](C)[C@H](O)[C@@H](O)[C@H]1O)C(=O)N[C@@H](Cc1c[nH]c2ccccc12)C(=O)O [phosphoramidon, N-(alpha-rhamnopyranosyloxy-hydroxyphosphinyl)-L-leucyl-L-tryptophan, reference compound]",inhibition at 5000 µM,lice eggs [1]; [6],41%
"CC(C)C[C@H](NC(=O)[C@@H](O)[C@H](N)Cc1ccc([N+](=O)[O-])cc1)C(=O)O [nitrobestatin, reference compound]",% Inhibition of lice egg hatching (maximum over the time-course),lice eggs [1]; 1 mg/ml,0%
c1ccc(-c2ccc3ccccc3n2)nc1 [2-(2-pyridinyl)quinoline],% Inhibition,"[4]; Table 16, 10 mM, relative to control (100% ETOH)",able to inhibit egg hatching
"CC(C)C[C@H](N)[C@](O)(Cc1cnc[nH]1)C(=O)O [leuhistin, reference compound]",% Inhibition of lice egg hatching (maximum over the time-course),lice eggs [1]; 5 mM,0%
CC(C)CC(=O)N[C@H](C(=O)N[C@H](C(=O)N[C@@H](CC(C)C)[C@@H](O)CC(=O)N[C@@H](C)C(=O)N[C@@H](CC(C)C)[C@@H](O)CC(=O)O)C(C)C)C(C)C [pepstatin] (Isovaleryl-VV[Sta]A[Sta]-OH),protease activity of the ESW,[2]; 5 μM inhibitor,did not show any reduction in protease activity; also recorded: No reduction in protease activity
